# Experimental data reported in patent US20210115104A1, “AMYLIN ANALOGUES” (Zealand Pharma A/S, priority 2015, published 2021).
# *1 amine or outer side, *2 acyl side, *3 side chain or, on linkers, in order; H or OH if unused. Where a SMILES comes first, the peptide text is derived from it. Bridges are numbered along the chain shown (N, C = ends). [ ]: non-standard residue; d: D form. The star is where a group is joined. C20 diacid = O=C(O)CCCCCCCCCCCCCCCCCCC(=O)*; Pro(4R-NH2) = N[C@H]1CN[C@H](C(=O)O)C1; γGlu = O=C(O)[C@H](CCC(=O)[*:2])N[*:1]; Hyp = O=C(O)[C@@H]1C[C@@H](O)CN1; NMeI = CC[C@H](C)[C@H](NC)C(=O)O; Sar = CNCC(=O)O
# Target: T1, human calcitonin receptor (hCTR2) (Homo sapiens, UniProt P30988)
# T1 construct: expressed in transfected cells
# T1 sequence (P30988 25-474): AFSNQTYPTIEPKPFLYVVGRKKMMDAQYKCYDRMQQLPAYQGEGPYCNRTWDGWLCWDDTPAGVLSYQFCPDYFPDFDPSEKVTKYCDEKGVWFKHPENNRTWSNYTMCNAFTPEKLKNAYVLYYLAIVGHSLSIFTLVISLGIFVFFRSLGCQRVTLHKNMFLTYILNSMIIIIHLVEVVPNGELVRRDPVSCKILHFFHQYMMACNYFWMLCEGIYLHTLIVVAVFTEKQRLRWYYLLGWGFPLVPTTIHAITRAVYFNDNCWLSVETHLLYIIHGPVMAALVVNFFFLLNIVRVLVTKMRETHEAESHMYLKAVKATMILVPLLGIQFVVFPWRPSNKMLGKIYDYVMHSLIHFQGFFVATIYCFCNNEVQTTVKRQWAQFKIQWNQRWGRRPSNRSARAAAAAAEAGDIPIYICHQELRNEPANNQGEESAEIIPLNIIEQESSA
# Test: hCTR2 cAMP assay (AlphaScreen) in COS7 cells
# Assay type: cell-based
# Conditions: cAMP induction, COS7 cells expressing hCTR2; Table 1; read-out: hCTR2 EC50
# Description: The cell line COS7, originating from African Green Monkey kidney fibroblast cells, was used for establishment of the stable cell lines described below. The COS7 cellular background was used due to it being RAMP naïve, and as such it provides the best available system for testing of the monomeric hCTR and different heterodimeric amylin receptor subtypes functionally generated by introduction of the individual RAMPs.
# A cell line expressing the human calcitonin receptor (hCTR2) was generated in the COS7 cellular background as stable clones. In brief, hCTR2 (GI: 4502547) was amplified by PCR using primers encoding terminal restriction sites for subcloning. The 5′-end primers additionally encoded a near Kozak consensus sequence to ensure efficient translation. The fidelity of the DNA encoding the receptor was confirmed by DNA sequencing. The PCR products encoding the receptor were subcloned into a mammalian expression vector containing a neomycin (G418) resistance marker. The mammalian expression vector encoding the receptor was transfected into COS7 cells by a standard liposome transfection method. 48 hours post-transfection, cells were seeded for limited dilution cloning and selected with 1 mg/ml G418 in the culture medium. After 3 weeks, surviving colonies of hCTR2-expressing cells were picked, propagated and tested in the amylin efficacy assay as described in Example 3 below. One hCTR2-expressing clone was chosen for compound profiling.
# In vitro activity of test peptides at the hCTR2 and hAMYR3 receptors was assessed by measuring the induction of cAMP following stimulation of the receptor using the AlphaScreen® cAMP Assay kit from Perkin-Elmer.
# Briefly, COS7 cells expressing hCTR2 (see Example 2, above) were seeded at 30-40,000 cells per well in 96-well microtiter plates coated with 0.01% poly-L-lysine, and grown for 1 day in culture in 100 μl growth medium [DMEM, 10% FCS, Penicillin (100 IU/ml), Streptomycin (100 μg/ml)]. On the day of analysis, growth medium was removed and the cells were washed once with 200 μl Tyrode buffer [Tyrode's Salts (9.6 g/I), 10 mM HEPES, pH 7.4]. Cells were incubated in 100 μl Tyrode buffer containing increasing concentrations of test peptides, 100 µM IBMX and 0.1% casein for 15 min at 37° C. The reaction was stopped by carefully decanting off the compound/buffer medium and replacing it with lysis/detection buffer (80 μl 0.1% w/v BSA, 5 mM HEPES, 0.3% v/v Tween-20 in deionized water). After incubation at room temperature for 10 min., the cAMP content of the resulting cell lysate was estimated according to the AlphaScreen® cAMP Assay manufacturer's instructions. EC50 values were estimated by computer-aided curve fitting using the 4-parameter logistic (4PL) non-linear model.
row,EC50,Compound
1,0.13 nM,"CC[C@H](C)[C@@H](C(=O)N[C@@H](CC(C)C)C(=O)N[C@@H](CO)C(=O)N[C@@H](CO)C(=O)N[C@H](C(=O)N[C@@H](CCC(=O)O)C(=O)N[C@H](C(=O)NCC(=O)N[C@@H](CO)C(=O)N[C@@H](CC(N)=O)C(=O)N[C@H](C(=O)N1C[C@H](O)C[C@H]1C(N)=O)[C@@H](C)O)C(C)C)[C@@H](C)O)N(C)C(=O)[C@H](C)NC(=O)CN(C)C(=O)[C@H](Cc1ccccc1)NC(=O)[C@H](CO)NC(=O)[C@H](CO)NC(=O)[C@H](CCCNC(=N)N)NC(=O)[C@@H](NC(=O)[C@H](CC(C)C)NC(=O)[C@H](Cc1ccccc1)NC(=O)[C@H](CC(N)=O)NC(=O)[C@H](C)NC(=O)[C@H](CC(C)C)NC(=O)[C@H](CCCNC(=N)N)NC(=O)[C@H](CCC(=O)O)NC(=O)[C@@H](NC(=O)[C@H](C)NC(=O)[C@@H]1CSSC[C@H](NC(=O)[C@H](CCCNC(=N)N)NC(=O)CC[C@H](NC(=O)CCCCCCCCCCCCCCCCCCC(=O)O)C(=O)O)C(=O)NCC(=O)N[C@@H]([C@@H](C)O)C(=O)N[C@@H](C)C(=O)N[C@@H]([C@@H](C)O)C(=O)N1)[C@@H](C)O)C(C)C [Compound 17, [19CD]-isoGlu-R-C( )-GTAT-C( )-ATERLANFLVRSSF-Gly(Me)-A-Ile(Me)-LSSTEVGSNT-Hyp-NH2] ({C20 diacid-γGlu}-RCGTATCATERLANFLVRSSF[Sar]A[NMeI]LSSTEVGSNT[Hyp]-NH2; disulfide 2-7)"
2,0.16 nM,"CC[C@H](C)[C@@H](C(=O)N[C@@H](CC(C)C)C(=O)N[C@@H](CO)C(=O)N[C@@H](CO)C(=O)N[C@H](C(=O)N[C@@H](CCC(=O)O)C(=O)N[C@H](C(=O)NCC(=O)N[C@@H](CO)C(=O)N[C@@H](CO)C(=O)N[C@H](C(=O)N1C[C@H](N)C[C@H]1C(N)=O)[C@@H](C)O)C(C)C)[C@@H](C)O)N(C)C(=O)[C@H](C)NC(=O)CN(C)C(=O)[C@H](Cc1ccccc1)NC(=O)[C@H](CO)NC(=O)[C@H](CO)NC(=O)[C@H](CCCNC(=N)N)NC(=O)[C@@H](NC(=O)[C@H](CC(C)C)NC(=O)[C@H](Cc1ccccc1)NC(=O)[C@H](Cc1c[nH]cn1)NC(=O)[C@H](C)NC(=O)[C@H](CC(C)C)NC(=O)[C@H](CCCNC(=N)N)NC(=O)[C@H](CCC(=O)O)NC(=O)[C@@H](NC(=O)[C@H](C)NC(=O)[C@@H]1CSSC[C@H](NC(=O)[C@H](CCCNC(=N)N)NC(=O)CC[C@H](NC(=O)CCCCCCCCCCCCCCCCCCC(=O)O)C(=O)O)C(=O)NCC(=O)N[C@@H]([C@@H](C)O)C(=O)N[C@@H](C)C(=O)N[C@@H]([C@@H](C)O)C(=O)N1)[C@@H](C)O)[C@@H](C)O [Compound 45, [19CD]-isoGlu-R-C( )-GTAT-C( )-ATERLAHFLTRSSF-Gly(Me)-A-Ile(Me)-LSSTEVGSST-Apr-NH2] ({C20 diacid-γGlu}-RCGTATCATERLAHFLTRSSF[Sar]A[NMeI]LSSTEVGSST[Pro(4R-NH2)]-NH2; disulfide 2-7)"
3,0.12 nM,"CC[C@H](C)[C@@H](C(=O)N[C@@H](CC(C)C)C(=O)N[C@@H](CO)C(=O)N[C@@H](CO)C(=O)N[C@H](C(=O)N[C@@H](CCC(=O)O)C(=O)N[C@H](C(=O)NCC(=O)N[C@@H](CO)C(=O)N[C@@H](CC(N)=O)C(=O)N[C@H](C(=O)N1CCC[C@H]1C(N)=O)[C@@H](C)O)C(C)C)[C@@H](C)O)N(C)C(=O)[C@H](C)NC(=O)CN(C)C(=O)[C@H](Cc1ccccc1)NC(=O)[C@H](CO)NC(=O)[C@H](CO)NC(=O)[C@H](CCCNC(=N)N)NC(=O)[C@H](CCC(N)=O)NC(=O)[C@H](CC(C)C)NC(=O)[C@H](Cc1ccccc1)NC(=O)[C@H](Cc1c[nH]cn1)NC(=O)[C@H](C)NC(=O)[C@H](CC(C)C)NC(=O)[C@H](CCCNC(=N)N)NC(=O)[C@H](CCC(N)=O)NC(=O)[C@@H](NC(=O)[C@H](C)NC(=O)[C@@H]1CSSC[C@H](NC(=O)[C@H](CCCNC(=N)N)NC(=O)CC[C@H](NC(=O)CCCCCCCCCCCCCCCCCCC(=O)O)C(=O)O)C(=O)N[C@@H](CC(N)=O)C(=O)N[C@@H]([C@@H](C)O)C(=O)N[C@@H](C)C(=O)N[C@@H]([C@@H](C)O)C(=O)N1)[C@@H](C)O [Compound 61, [19CD]-isoGlu-R-C( )-NTAT-C( )-ATQRLAHFLQRSSF-Gly(Me)-A-Ile(Me)-LSSTEVGSNTP-NH2] ({C20 diacid-γGlu}-RCNTATCATQRLAHFLQRSSF[Sar]A[NMeI]LSSTEVGSNTP-NH2; disulfide 2-7)"
4,0.35 nM,"CC[C@H](C)[C@@H](C(=O)N[C@@H](CC(C)C)C(=O)N[C@@H](CO)C(=O)N[C@@H](CO)C(=O)N[C@H](C(=O)N[C@@H](CCC(=O)O)C(=O)N[C@H](C(=O)NCC(=O)N[C@@H](CO)C(=O)N[C@@H](CC(N)=O)C(=O)N[C@H](C(=O)N1C[C@H](O)C[C@H]1C(N)=O)[C@@H](C)O)C(C)C)[C@@H](C)O)N(C)C(=O)[C@H](C)NC(=O)CN(C)C(=O)[C@H](Cc1ccccc1)NC(=O)[C@H](CO)NC(=O)[C@H](CO)NC(=O)[C@H](CCCNC(=N)N)NC(=O)[C@H](CCC(N)=O)NC(=O)[C@H](CC(C)C)NC(=O)[C@H](Cc1ccccc1)NC(=O)[C@H](Cc1c[nH]cn1)NC(=O)[C@H](C)NC(=O)[C@H](CC(C)C)NC(=O)[C@H](CCCNC(=N)N)NC(=O)[C@H](CCC(=O)O)NC(=O)[C@@H](NC(=O)[C@H](C)NC(=O)[C@@H]1CSSC[C@H](NC(=O)[C@H](CCCNC(=N)N)NC(=O)CC[C@H](NC(=O)CCCCCCCCCCCCCCCCCCC(=O)O)C(=O)O)C(=O)N2CCC[C@H]2C(=O)N[C@@H]([C@@H](C)O)C(=O)N[C@@H](C)C(=O)N[C@@H]([C@@H](C)O)C(=O)N1)[C@@H](C)O [Compound 63, [19CD]-isoGlu-R-C( )-PTAT-C( )-ATERLAHFLQRSSF-Gly(Me)-A-Ile(Me)-LSSTEVGSNT-Hyp-NH2] ({C20 diacid-γGlu}-RCPTATCATERLAHFLQRSSF[Sar]A[NMeI]LSSTEVGSNT[Hyp]-NH2; disulfide 2-7)"
5,0.27 nM,"CC[C@H](C)[C@@H](C(=O)N[C@@H](CC(C)C)C(=O)N[C@@H](CO)C(=O)N[C@@H](CO)C(=O)N[C@H](C(=O)N[C@@H](CCC(=O)O)C(=O)N[C@H](C(=O)NCC(=O)N[C@@H](CO)C(=O)N[C@@H](CC(N)=O)C(=O)N[C@H](C(=O)N1CCC[C@H]1C(N)=O)[C@@H](C)O)C(C)C)[C@@H](C)O)N(C)C(=O)[C@H](C)NC(=O)CN(C)C(=O)[C@H](Cc1ccccc1)NC(=O)[C@H](CO)NC(=O)[C@H](CO)NC(=O)[C@H](CCCNC(=N)N)NC(=O)[C@H](CCC(N)=O)NC(=O)[C@H](CC(C)C)NC(=O)[C@H](Cc1ccccc1)NC(=O)[C@H](CC(=O)O)NC(=O)[C@H](C)NC(=O)[C@H](CC(C)C)NC(=O)[C@H](CCCNC(=N)N)NC(=O)[C@H](CCC(=O)O)NC(=O)[C@@H](NC(=O)[C@H](C)NC(=O)[C@@H]1CSSC[C@H](NC(=O)[C@H](CCCNC(=N)N)NC(=O)CC[C@H](NC(=O)CCCCCCCCCCCCCCCCCCC(=O)O)C(=O)O)C(=O)N2CCC[C@H]2C(=O)N[C@@H]([C@@H](C)O)C(=O)N[C@@H](C)C(=O)N[C@@H]([C@@H](C)O)C(=O)N1)[C@@H](C)O [Compound 67, [19CD]-isoGlu-R-C( )-PTAT-C( )-ATERLADFLQRSSF-Gly(Me)-A-Ile(Me)-LSSTEVGSNTP-NH2] ({C20 diacid-γGlu}-RCPTATCATERLADFLQRSSF[Sar]A[NMeI]LSSTEVGSNTP-NH2; disulfide 2-7)"
